Reference: ChEMBL document CHEMBL1122794, “[(Arylcarbonyl)oxy]propanolamines. 1. Novel beta-blockers with ultrashort duration of action” (J Med Chem, 1984)
Active and inactive are the calls of the source. The rule behind the calls is not given here.

Columns and labels:
[1] = Selectivity determined by expression 10[pA2(atria) - pA2 (trachea)] in guinea pig; type: functional, Cavia porcellus
Adrenergic receptor beta [2] = biological target: T1, Adrenergic receptor beta (Homo sapiens, UniProt P08588+P07550+P13945); assay: In Vitro inhibition of the beta adrenergic receptor in guinea pig atria; type: tissue-based, Cavia porcellus; conditions: target entry is the homologue from another species
Adrenergic receptor beta [3] = biological target: T1, Adrenergic receptor beta; assay: In vitro blocking of beta adrenergic receptor in guinea pig trachea; type: tissue-based, Cavia porcellus; conditions: target entry is the homologue from another species

SMILES	pA2 (Adrenergic receptor beta [2])	pA2 (Adrenergic receptor beta [3])	pA2 (Adrenergic receptor beta [2]; Cavia porcellus)	Selectivity [1]
CC(C)NCC(O)COc1ccccc1 (centres undefined)	8	7.4		4
COc1ccc(CCNCC(O)COC(=O)c2cccc(F)c2)cc1OC (centres undefined)	6.4	6.2		2
CCCOc1ccc(C(=O)OCC(O)CNC(C)(C)C)cc1 (centres undefined)	5.4			
CC(C)(C)NCC(O)COC(=O)C1c2ccccc2-c2ccccc21 (centres undefined)	< 6			
COc1ccc(CCNCC(O)COC(=O)c2ccc(N)cc2)cc1OC (centres undefined)	6.5	5.7		6
Cc1cc(N)ccc1C(=O)OCC(O)CNC(C)(C)C (centres undefined)	7.8	8.4		-4
CC(C)(C)NCC(O)COC(=O)CCCc1ccccc1 (centres undefined)	5.3			
Cc1ccccc1OCC(O)CNC(C)C (centres undefined)	8.6	8.2		3
COc1ccccc1COC(=O)C(O)CNCCc1ccc(OC)c(OC)c1 (centres undefined)		5	inactive	
CC(C)(C)NCC(O)COC(=O)c1ccncc1 (centres undefined)	5.3			
COc1ccc(CCNCC(O)COC(=O)c2ccc(CO)cc2)cc1OC (centres undefined)	< 5.5			
CC(C)(C)NCC(O)COC(=O)C1CCCC1 (centres undefined)	5.3			
CNCC(O)COC(=O)c1ccc2c(c1)OCO2 (centres undefined)	5.3			
CC(C)(C)NCC(O)COC(=O)c1ccc(OCc2ccccc2)cc1 (centres undefined)	6.2			
CC(C)(C)NCC(O)COC(=O)c1ccc(N)cc1 (centres undefined)	7	7		1
CC(C)(C)NCC(O)COC(=O)c1cccc(N)c1 (centres undefined)	6.7	7.2		-3.5
COc1ccc(CCNCC(O)C(=O)Oc2ccccc2C)cc1OC (centres undefined)	5.9			
C=CCOc1ccc(C(=O)OCC(O)CNC(C)(C)C)cc1 (centres undefined)	6			
Cc1cc([N+](=O)[O-])ccc1C(=O)OCC(O)CNC(C)(C)C (centres undefined)	6.6	7.3		-5
CC(C)NCC(O)COC(=O)c1ccc(OCc2ccccc2)cc1 (centres undefined)	< 6			
Cc1cccc(C(=O)OCC(O)CNC(C)(C)C)c1 (centres undefined)	7	7.3		-2
COc1ccc(CCNCC(O)COC(=O)c2ccc(C)cc2)cc1OC (centres undefined)	6.6	6		4

Second part, led by results:

pA2 (Adrenergic receptor beta [2])	pA2 (Adrenergic receptor beta [3])	pA2 (Adrenergic receptor beta [2]; Cavia porcellus)	SMILES	Selectivity [1]
7.7	7.7		COCCOC(=O)NCC(C)(C)NCC(O)COC(=O)c1ccccc1F (centres undefined)	1
6.8	7.3		Cc1cccc(C(=O)OCC(O)CNC(C)C)c1 (centres undefined)	-3
6.6			CCCOc1cccc(C(=O)OCC(O)CNC(C)C)c1 (centres undefined)	
6.6	7		CC(C)NCC(O)COC(=O)c1cccc2ccccc12 (centres undefined)	-2.5
6.4	6.2		C=CCOc1ccccc1C(=O)OCC(O)CNC(C)C (centres undefined)	-2
6.8	7.2		CC(C)NCC(O)COC(=O)c1cccc([N+](=O)[O-])c1 (centres undefined)	-2.5
6.8	6.8		C=CCOc1cccc(C(=O)OCC(O)CNC(C)C)c1 (centres undefined)	1
< 6			O=C(Cc1ccccc1)NCCNCC(O)COC(=O)c1ccccc1F (centres undefined)	
6.1			CC(C)C(=O)NCCNCC(O)COC(=O)c1ccccc1F (centres undefined)	
5.8	5.2		CC(=O)Nc1ccc(C(=O)OCC(O)CNC(C)C)cc1 (centres undefined)	4
< 6.3			CC(=O)NCC(C)NCC(O)COC(=O)c1ccccc1F (centres undefined)	
7.4	7.5		CN(C)S(=O)(=O)NCC(C)(C)NCC(O)COC(=O)c1ccccc1F (centres undefined)	1
6.1	6.4		CC(=O)Nc1cccc(C(=O)OCC(O)CNC(C)C)c1 (centres undefined)	-2
